In PMC6384738, “Structure-Function Studies of Polymyxin B Lipononapeptides” (Molecules, 2019):
Values after ≈ are worked out from the molar mass of the structure shown. *1 amine or outer side, *2 acyl side, *3 side chain or, on linkers, in order; H or OH if unused. Where a SMILES comes first, the peptide text is derived from it. Bridges are numbered along the chain shown (N, C = ends). [ ]: non-standard residue; d: D form. The star is where a group is joined. Benzoyl(3-Ph) = O=C(c1cccc(-c2ccccc2)c1)*; Cit = NC(=O)NCCC[C@H](N)C(=O)O; NH(2-ClPh) = Clc1ccccc1N*; Octanoyl = CCCCCCCC(=O)*; Dab = NCC[C@H](N)C(=O)O; Dap = NC[C@H](N)C(=O)O; CO = O=C([*:1])[*:2]

Columns and labels:
[1] = in vitro; conditions: human
Protocol: (§1) All compounds synthesised in this study were assessed for their minimum inhibitory concentrations (MIC, mg/L) by broth microdilution assay against five antibiotic-sensitive and resistant ATCC reference strains covering the Gram-negative ESKAPE pathogens (Escherichia coli, Klebsiella pneumoniae, A. baumannii, and P. aeruginosa) (Table 1, Table 2 and Table 3). Staphylococcus aureus was also included as a representative Gram-positive bacterial strain. […] Polymyxin B 1, colistin 2, vancomycin and gentamicin were used as positive inhibitor comparator compounds. Compounds were counter-screened against human proximal tubular epithelial cells (HK-2), using LDH release as a general indicator of cellular toxicity.
Cytotoxicity to human kidney proximal tubular epithelial cell line, HK-2 (ATCC CRL-2190, sourced from ATCC; Manassas, VA, USA) was determined using the LDH assay as previously described. In brief, HK-2 cells were seeded as 2000 cells/well in black-walled clear bottom 384-well tissue culture treated plates (Corning, catalogue No. 3712) in DMEM/F12 medium (Gibco® 10565-042) containing 10% of Fetal Bovine Serum (FBS, Gibco® 10099-141) and incubated for 24 h at 37 °C, 5% CO2. Compounds were then added into each well with a concentration series from 300 µM to 2.3 µM in 2-fold dilutions. Colistin and polymyxin B were used as controls and tested at a final concentration range of 1 mM to 7.8 µM. The cells were incubated with the compounds for 24 h at 37 °C, 5% CO2. After the incubation, 5 µL of culture medium was added to 45 µL of LDH assay buffer (Biovision, K313-500) and incubated for 30 min at room temperature. The absorbance (ABS) was then read at 450 nm using a Polar Star Omega plate reader. The data was analysed by Prism 6 software (GraphPad Software, La Jolla, CA, USA). Results were calculated using the following equation: cytotoxicity %= (ABSsamples − ABSuntreated/ABS1%Triton X-100 − ABSuntreated) × 100.

[2] = system: S. aureus ATCC 25923; assay: microbe, parasite or virus in culture
Protocol: as §1

[3] = system: A. baumannii ATCC 19606; assay: microbe, parasite or virus in culture
Protocol: as §1

[4] = system: K. pneumoniae BAA 2146; assay: microbe, parasite or virus in culture
Protocol: as §1

[5] = system: K. pneumoniae ATCC 700603; assay: microbe, parasite or virus in culture
Protocol: as §1

[6] = system: K. pneumoniae ATCC 13833; assay: microbe, parasite or virus in culture
Protocol: as §1

[7] = system: E. coli ATCC 25922; assay: microbe, parasite or virus in culture
Protocol: as §1

[8] = system: P. aeruginosa ATTC 27853; assay: microbe, parasite or virus in culture
Protocol: as §1

SMILES | MIC S. aureus ATCC 25923 ([2]; ATCC 25923, 18 h) | MIC A. baumannii ATCC 19606 ([3]; ATCC 19606, 18 h) | MIC K. pneumoniae BAA 2146 ([4]; BAA 2146, 18 h) | MIC K. pneumoniae ATCC 700603 ([5]; ATCC 700603, 18 h) | MIC K. pneumoniae ATCC 13833 ([6]; ATCC 13833, 18 h) | MIC E. coli ATCC 25922 ([7]; ATCC 25922, 18 h) | MIC P. aeruginosa ATTC 27853 ([8]; ATTC 27853, 18 h) | CC50 at 24 h [1] | MIC S. aureus ATCC 25923 ([2]; Gram-positive strain, broth microdilution, 18 h) | MIC A. baumannii ATCC 19606 ([3]; broth microdilution, 18 h) | MIC K. pneumoniae BAA 2146 ([4]; NDM-1 positive strain, broth microdilution, 18 h) | MIC K. pneumoniae ATCC 700603 ([5]; ESBL strain, broth microdilution, 18 h) | MIC K. pneumoniae ATCC 13833 ([6]; broth microdilution, 18 h) | MIC E. coli ATCC 25922 ([7]; broth microdilution, 18 h, 37 °C) | MIC P. aeruginosa ATTC 27853 ([8]; broth microdilution, 18 h)
CC(C)C[C@@H]1NC(=O)[C@@H](Cc2ccccc2)NC(=O)[C@H](CCN)NC(=O)[C@@H](NC(=O)[C@H](CCN)NC(=O)[C@@H](NC(=O)c2cccc(-c3ccccc3)c2)[C@@H](C)O)CCNC(=O)[C@H]([C@@H](C)O)NC(=O)[C@H](CCN)NC(=O)[C@H](CCN)NC1=O [Compound 14] ({Benzoyl(3-Ph)}-T[Dab][Dab][Dab][dF]L[Dab][Dab]T; lactam 3-C) | >32 µg/mL | >32 µg/mL | 16 µg/mL (≈ 14 µM) | 32 µg/mL (≈ 28 µM) | >32 µg/mL | 8 µg/mL (≈ 7 µM) | 2 µg/mL (≈ 1.75 µM) | 182 µM | – | – | – | – | – | – | –
CCCCCCCC(=O)N[C@H](C(=O)N[C@@H](CC(N)=O)C(=O)N[C@H]1CCNC(=O)[C@H]([C@@H](C)O)NC(=O)[C@H](CCN)NC(=O)[C@H](CCN)NC(=O)[C@H](CC(C)C)NC(=O)[C@@H](Cc2ccccc2)NC(=O)[C@H](CCN)NC1=O)[C@@H](C)O [Compound 38] (Octanoyl-TN[Dab][Dab][dF]L[Dab][Dab]T; lactam 3-C) | >32 µg/mL | >32 µg/mL | >32 µg/mL | >32 µg/mL | >32 µg/mL | 32 µg/mL (≈ 29 µM) | >32 µg/mL | 284 µM | – | – | – | – | – | – | –
CC(C)C[C@@H]1NC(=O)[C@@H](Cc2ccccc2)NC(=O)[C@H](CCN)NC(=O)[C@@H](NC(=O)[C@H](CCN)NC(=O)[C@@H](NC(=O)Nc2ccccc2Cl)[C@@H](C)O)CCNC(=O)[C@H]([C@@H](C)O)NC(=O)[C@H](CCN)NC(=O)[C@H](CCN)NC1=O [Compound 15] ({NH(2-ClPh)-CO}-T[Dab][Dab][Dab][dF]L[Dab][Dab]T; lactam 3-C) | – | – | – | – | – | – | – | 206 µM | >32 µg/mL | >32 µg/mL | 32 µg/mL (≈ 28.7 µM) | 32 µg/mL (≈ 28.7 µM) | >32 µg/mL | 32 µg/mL (≈ 28.7 µM) | 1 µg/mL (≈ 0.895 µM)

Continued, in another order:

MIC S. aureus ATCC 25923 ([2]; ATCC 25923, 18 h) | MIC A. baumannii ATCC 19606 ([3]; ATCC 19606, 18 h) | MIC K. pneumoniae BAA 2146 ([4]; BAA 2146, 18 h) | MIC K. pneumoniae ATCC 700603 ([5]; ATCC 700603, 18 h) | MIC K. pneumoniae ATCC 13833 ([6]; ATCC 13833, 18 h) | MIC E. coli ATCC 25922 ([7]; ATCC 25922, 18 h) | MIC P. aeruginosa ATTC 27853 ([8]; ATTC 27853, 18 h) | SMILES | CC50 at 24 h [1] | MIC S. aureus ATCC 25923 ([2]; Gram-positive strain, broth microdilution, 18 h) | MIC A. baumannii ATCC 19606 ([3]; broth microdilution, 18 h) | MIC K. pneumoniae BAA 2146 ([4]; NDM-1 positive strain, broth microdilution, 18 h) | MIC K. pneumoniae ATCC 700603 ([5]; ESBL strain, broth microdilution, 18 h) | MIC K. pneumoniae ATCC 13833 ([6]; broth microdilution, 18 h) | MIC E. coli ATCC 25922 ([7]; broth microdilution, 18 h, 37 °C) | MIC P. aeruginosa ATTC 27853 ([8]; broth microdilution, 18 h)
>32 µg/mL | >32 µg/mL | 32 µg/mL (≈ 27.9 µM) | >32 µg/mL | >32 µg/mL | 32 µg/mL (≈ 27.9 µM) | >32 µg/mL | CCCCCCCC(=O)N[C@H](C(=O)N[C@@H](CCCNC(N)=O)C(=O)N[C@H]1CCNC(=O)[C@H]([C@@H](C)O)NC(=O)[C@H](CCN)NC(=O)[C@H](CCN)NC(=O)[C@H](CC(C)C)NC(=O)[C@@H](Cc2ccccc2)NC(=O)[C@H](CCN)NC1=O)[C@@H](C)O [Compound 44] (Octanoyl-T[Cit][Dab][Dab][dF]L[Dab][Dab]T; lactam 3-C) | > 300 µM | – | – | – | – | – | – | –
>32 µg/mL | 1 µg/mL (≈ 0.93 µM) | 0.5 µg/mL (≈ 0.465 µM) | 1 µg/mL (≈ 0.93 µM) | 1 µg/mL (≈ 0.93 µM) | 1 µg/mL (≈ 0.93 µM) | 1 µg/mL (≈ 0.93 µM) | CCCCCCCC(=O)N[C@H](C(=O)N[C@@H](CN)C(=O)N[C@H]1CCNC(=O)[C@H]([C@@H](C)O)NC(=O)[C@H](CCN)NC(=O)[C@H](CCN)NC(=O)[C@H](CC(C)C)NC(=O)[C@@H](Cc2ccccc2)NC(=O)[C@H](CCN)NC1=O)[C@@H](C)O [Compound 39] (Octanoyl-T[Dap][Dab][Dab][dF]L[Dab][Dab]T; lactam 3-C) | 290 µM | – | – | – | – | – | – | –
>32 µg/mL | 16 µg/mL (≈ 14.3 µM) | 4 µg/mL (≈ 3.58 µM) | 4 µg/mL (≈ 3.58 µM) | >32 µg/mL | 1 µg/mL (≈ 0.895 µM) | 4 µg/mL (≈ 3.58 µM) | CCCCCCCC(=O)N[C@H](C(=O)N[C@H](CCCCN)C(=O)N[C@H]1CCNC(=O)[C@H]([C@@H](C)O)NC(=O)[C@H](CCN)NC(=O)[C@H](CCN)NC(=O)[C@H](CC(C)C)NC(=O)[C@@H](Cc2ccccc2)NC(=O)[C@H](CCN)NC1=O)[C@@H](C)O [Compound 43] (Octanoyl-T[dK][Dab][Dab][dF]L[Dab][Dab]T; lactam 3-C) | > 300 µM | – | – | – | – | – | – | –
